Data as given in ChEMBL document CHEMBL2440060, “Identification of a Novel and Selective Series of Itk Inhibitors via a Template-Hopping Strategy” (ACS Med Chem Lett, 2013).

Columns and labels:
Aurora kinase B [1] = molecular target: T1, Aurora kinase B (Homo sapiens, UniProt Q96GD4); test: Inhibition of Aurora-B (unknown origin) using 5FAM-PKAtide as substrate after 120 mins
[2] = molecular target: T2, Tyrosine-protein kinase Lck (Homo sapiens, UniProt P06239); test: Inhibition of LCK (unknown origin) using tamra-p34cdc-derived peptide as substrate after 30 mins
T2 sequence (P06239 whole entry): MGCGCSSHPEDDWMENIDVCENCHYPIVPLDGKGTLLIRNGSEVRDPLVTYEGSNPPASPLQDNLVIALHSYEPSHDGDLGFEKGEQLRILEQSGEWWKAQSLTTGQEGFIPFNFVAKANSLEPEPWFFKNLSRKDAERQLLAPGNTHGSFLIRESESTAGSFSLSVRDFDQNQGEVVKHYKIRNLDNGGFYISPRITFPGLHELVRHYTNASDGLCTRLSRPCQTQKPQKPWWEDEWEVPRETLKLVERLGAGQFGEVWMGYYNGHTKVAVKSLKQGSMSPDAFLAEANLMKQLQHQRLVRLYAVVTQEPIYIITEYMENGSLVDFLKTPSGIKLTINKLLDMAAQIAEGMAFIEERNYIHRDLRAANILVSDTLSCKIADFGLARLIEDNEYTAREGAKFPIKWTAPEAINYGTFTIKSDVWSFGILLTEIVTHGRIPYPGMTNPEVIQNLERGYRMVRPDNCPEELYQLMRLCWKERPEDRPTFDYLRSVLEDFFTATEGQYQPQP

[3] = molecular target: T3, Tyrosine-protein kinase ITK/TSK (Homo sapiens, UniProt Q08881); test: Inhibition of recombinant human FLAG-tagged ITK using biotinylated GST-SAM68 as substrate after 30 mins
T3 sequence (Q08881 whole entry): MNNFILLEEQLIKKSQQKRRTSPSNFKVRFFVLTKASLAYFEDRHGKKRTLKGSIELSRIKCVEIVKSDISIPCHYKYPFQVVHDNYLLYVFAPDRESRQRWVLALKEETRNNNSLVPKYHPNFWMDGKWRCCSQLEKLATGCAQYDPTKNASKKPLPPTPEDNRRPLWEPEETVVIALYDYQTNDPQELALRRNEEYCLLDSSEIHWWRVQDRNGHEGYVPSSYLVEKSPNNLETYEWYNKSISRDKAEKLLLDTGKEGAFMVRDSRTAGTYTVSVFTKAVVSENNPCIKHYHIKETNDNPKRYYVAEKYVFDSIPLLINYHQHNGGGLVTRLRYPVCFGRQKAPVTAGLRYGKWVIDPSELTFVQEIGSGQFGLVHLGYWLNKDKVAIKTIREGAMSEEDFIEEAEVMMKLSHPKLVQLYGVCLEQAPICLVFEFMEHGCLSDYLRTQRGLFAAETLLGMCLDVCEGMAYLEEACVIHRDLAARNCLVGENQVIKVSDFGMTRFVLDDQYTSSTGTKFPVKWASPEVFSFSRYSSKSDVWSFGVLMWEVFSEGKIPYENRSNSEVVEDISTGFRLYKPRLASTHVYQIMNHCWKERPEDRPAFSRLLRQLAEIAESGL

PBMC = test: Inhibition of cytostim-induced IFNgamma production in human PBMC treated 1 hr before cytostim stimulation measured after 18 hrs by MSD assay; assay type: functional, cell-based
Aurora kinase B [4] = molecular target: T1, Aurora kinase B; test: Inhibition of Aurora-B (unknown origin)
[5] = molecular target: T2, Tyrosine-protein kinase Lck; test: Inhibition of LCK (unknown origin)
[6] = molecular target: T3, Tyrosine-protein kinase ITK/TSK; test: Inhibition of ITK (unknown origin)
[7] = molecular target: Leucine-rich repeat serine/threonine-protein kinase 2 (Homo sapiens, UniProt Q5S007); test: Inhibition of LRRK2 (unknown origin)
Leucine-rich repeat serine/threonine-protein kinase 2, sequence (Q5S007 whole entry): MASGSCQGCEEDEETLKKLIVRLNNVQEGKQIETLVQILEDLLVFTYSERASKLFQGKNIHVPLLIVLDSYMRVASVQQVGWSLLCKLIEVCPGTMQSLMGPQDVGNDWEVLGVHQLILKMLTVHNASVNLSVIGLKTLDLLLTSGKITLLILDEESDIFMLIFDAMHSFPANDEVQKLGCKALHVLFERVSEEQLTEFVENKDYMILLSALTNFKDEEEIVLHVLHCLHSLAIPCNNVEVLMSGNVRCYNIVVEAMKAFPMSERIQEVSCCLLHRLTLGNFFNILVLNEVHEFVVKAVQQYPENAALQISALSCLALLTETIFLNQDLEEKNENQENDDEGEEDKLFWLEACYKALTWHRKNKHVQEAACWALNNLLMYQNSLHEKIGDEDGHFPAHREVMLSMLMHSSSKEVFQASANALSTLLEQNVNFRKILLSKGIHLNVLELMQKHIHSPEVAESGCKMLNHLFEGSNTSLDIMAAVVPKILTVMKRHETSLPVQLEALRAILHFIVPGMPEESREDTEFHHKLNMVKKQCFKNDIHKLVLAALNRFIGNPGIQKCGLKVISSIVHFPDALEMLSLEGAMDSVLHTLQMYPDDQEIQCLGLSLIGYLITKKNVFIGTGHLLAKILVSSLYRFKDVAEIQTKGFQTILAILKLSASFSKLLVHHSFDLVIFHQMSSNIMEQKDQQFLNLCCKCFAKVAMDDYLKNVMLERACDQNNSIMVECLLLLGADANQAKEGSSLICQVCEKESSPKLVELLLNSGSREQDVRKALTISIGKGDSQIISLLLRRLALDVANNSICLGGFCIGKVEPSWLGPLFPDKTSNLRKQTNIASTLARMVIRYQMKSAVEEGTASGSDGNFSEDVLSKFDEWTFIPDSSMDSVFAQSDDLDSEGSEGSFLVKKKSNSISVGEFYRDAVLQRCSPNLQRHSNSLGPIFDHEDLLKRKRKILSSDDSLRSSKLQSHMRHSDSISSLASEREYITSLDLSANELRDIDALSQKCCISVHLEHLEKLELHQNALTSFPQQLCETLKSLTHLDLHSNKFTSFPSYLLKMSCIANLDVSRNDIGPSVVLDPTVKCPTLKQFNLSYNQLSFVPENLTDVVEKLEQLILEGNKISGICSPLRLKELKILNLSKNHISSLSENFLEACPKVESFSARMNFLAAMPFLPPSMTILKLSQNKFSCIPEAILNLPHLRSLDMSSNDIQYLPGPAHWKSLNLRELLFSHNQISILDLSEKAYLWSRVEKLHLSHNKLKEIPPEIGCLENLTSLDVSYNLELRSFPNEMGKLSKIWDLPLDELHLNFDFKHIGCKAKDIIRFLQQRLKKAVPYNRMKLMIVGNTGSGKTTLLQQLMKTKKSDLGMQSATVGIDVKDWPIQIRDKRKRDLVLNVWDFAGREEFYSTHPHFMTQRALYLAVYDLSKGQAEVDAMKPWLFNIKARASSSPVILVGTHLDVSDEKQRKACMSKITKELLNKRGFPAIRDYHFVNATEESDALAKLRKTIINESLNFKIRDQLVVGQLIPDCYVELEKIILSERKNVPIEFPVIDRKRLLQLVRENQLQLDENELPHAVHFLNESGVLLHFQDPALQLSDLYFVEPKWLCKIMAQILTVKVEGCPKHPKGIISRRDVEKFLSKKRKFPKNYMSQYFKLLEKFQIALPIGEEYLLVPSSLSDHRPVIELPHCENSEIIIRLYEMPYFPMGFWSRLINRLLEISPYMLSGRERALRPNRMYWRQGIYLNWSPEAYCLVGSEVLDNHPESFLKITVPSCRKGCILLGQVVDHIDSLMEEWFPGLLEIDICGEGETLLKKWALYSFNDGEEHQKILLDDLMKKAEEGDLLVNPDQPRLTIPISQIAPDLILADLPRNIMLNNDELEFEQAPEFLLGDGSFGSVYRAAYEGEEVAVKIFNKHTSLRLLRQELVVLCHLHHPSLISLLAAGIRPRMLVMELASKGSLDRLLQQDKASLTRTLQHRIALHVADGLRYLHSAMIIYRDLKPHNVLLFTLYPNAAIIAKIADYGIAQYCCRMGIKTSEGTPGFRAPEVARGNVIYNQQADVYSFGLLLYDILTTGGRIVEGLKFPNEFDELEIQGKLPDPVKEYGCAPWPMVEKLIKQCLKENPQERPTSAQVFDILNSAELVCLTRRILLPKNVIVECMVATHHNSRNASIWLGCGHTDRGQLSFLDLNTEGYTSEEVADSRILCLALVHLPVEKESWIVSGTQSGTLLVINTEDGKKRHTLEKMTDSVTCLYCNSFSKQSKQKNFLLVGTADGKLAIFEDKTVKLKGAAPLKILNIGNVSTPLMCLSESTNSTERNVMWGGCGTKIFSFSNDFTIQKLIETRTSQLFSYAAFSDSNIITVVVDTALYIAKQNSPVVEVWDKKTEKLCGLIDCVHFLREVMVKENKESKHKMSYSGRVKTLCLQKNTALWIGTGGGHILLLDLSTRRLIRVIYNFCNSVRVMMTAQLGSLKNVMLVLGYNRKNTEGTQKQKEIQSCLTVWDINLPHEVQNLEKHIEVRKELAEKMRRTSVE

[8] = molecular target: Epidermal growth factor receptor (Homo sapiens, UniProt P00533); test: Inhibition of EGFR (unknown origin)
[9] = molecular target: Tyrosine-protein kinase BTK (Homo sapiens, UniProt Q06187); test: Inhibition of Btk (unknown origin)
Tyrosine-protein kinase BTK, sequence (Q06187 whole entry): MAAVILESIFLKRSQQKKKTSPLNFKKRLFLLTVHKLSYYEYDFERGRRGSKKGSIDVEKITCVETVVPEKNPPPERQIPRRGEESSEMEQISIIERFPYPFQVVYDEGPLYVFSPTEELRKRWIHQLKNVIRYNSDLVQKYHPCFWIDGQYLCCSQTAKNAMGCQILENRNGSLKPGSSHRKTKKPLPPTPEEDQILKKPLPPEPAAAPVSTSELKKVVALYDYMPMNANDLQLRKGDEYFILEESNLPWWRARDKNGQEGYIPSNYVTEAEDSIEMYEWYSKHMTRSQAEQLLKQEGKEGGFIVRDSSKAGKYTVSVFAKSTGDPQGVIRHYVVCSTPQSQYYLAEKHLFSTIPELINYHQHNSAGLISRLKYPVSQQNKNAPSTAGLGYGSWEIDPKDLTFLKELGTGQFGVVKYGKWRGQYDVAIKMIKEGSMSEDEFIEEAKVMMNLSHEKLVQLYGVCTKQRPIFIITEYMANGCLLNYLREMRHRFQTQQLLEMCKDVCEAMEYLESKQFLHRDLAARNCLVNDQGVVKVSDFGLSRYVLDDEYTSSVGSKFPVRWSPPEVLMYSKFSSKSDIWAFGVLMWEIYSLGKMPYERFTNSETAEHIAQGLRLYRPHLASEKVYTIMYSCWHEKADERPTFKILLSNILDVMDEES

[10] = molecular target: T4, Tyrosine-protein kinase Tec (Homo sapiens, UniProt P42680); test: Inhibition of Tec (unknown origin)
T4 sequence (P42680 whole entry): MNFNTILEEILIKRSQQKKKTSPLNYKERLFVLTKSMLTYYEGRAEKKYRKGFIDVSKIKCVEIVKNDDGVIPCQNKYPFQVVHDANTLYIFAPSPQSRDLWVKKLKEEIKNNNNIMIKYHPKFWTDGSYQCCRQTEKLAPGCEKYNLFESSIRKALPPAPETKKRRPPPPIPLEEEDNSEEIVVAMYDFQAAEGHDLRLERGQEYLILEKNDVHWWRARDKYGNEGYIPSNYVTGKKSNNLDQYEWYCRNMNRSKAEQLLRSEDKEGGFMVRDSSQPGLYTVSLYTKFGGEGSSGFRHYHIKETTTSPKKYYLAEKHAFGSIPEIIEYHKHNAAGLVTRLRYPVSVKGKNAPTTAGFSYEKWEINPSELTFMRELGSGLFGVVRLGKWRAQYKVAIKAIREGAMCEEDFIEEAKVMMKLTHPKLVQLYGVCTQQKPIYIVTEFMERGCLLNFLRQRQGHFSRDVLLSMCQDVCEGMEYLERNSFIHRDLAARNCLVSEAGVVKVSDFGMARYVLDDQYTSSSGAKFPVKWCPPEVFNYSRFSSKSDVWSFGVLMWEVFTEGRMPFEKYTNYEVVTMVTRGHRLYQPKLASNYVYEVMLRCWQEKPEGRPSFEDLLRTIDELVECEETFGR

Insulin receptor = Insulin receptor (Homo sapiens, UniProt P06213); test: Inhibition of IR (unknown origin)
[11] = molecular target: Calcium/calmodulin-dependent protein kinase kinase 2 (Homo sapiens, UniProt Q96RR4); test: Inhibition of CAMKK2 (unknown origin)
Calcium/calmodulin-dependent protein kinase kinase 2, sequence (Q96RR4 whole entry): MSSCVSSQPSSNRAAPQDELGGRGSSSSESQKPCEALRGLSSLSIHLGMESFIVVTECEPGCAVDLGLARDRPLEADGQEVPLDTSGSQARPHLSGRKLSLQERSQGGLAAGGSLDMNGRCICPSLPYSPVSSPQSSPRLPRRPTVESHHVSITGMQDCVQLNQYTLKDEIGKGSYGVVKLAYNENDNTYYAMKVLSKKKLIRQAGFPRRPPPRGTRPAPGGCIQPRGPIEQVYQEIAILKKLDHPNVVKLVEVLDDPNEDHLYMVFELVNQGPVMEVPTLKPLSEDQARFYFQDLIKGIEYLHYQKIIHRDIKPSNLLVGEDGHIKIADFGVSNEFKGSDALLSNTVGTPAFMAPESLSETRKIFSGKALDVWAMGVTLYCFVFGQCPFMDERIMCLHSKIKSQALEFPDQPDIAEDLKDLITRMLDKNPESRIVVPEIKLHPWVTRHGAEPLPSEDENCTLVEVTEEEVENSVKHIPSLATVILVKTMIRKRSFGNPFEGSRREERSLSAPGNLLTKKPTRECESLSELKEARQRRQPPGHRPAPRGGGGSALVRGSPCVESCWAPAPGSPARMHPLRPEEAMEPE

[12] = molecular target: T5, Cytoplasmic tyrosine-protein kinase BMX (Homo sapiens, UniProt P51813); test: Inhibition of Bmx (unknown origin)
T5 sequence (P51813 whole entry): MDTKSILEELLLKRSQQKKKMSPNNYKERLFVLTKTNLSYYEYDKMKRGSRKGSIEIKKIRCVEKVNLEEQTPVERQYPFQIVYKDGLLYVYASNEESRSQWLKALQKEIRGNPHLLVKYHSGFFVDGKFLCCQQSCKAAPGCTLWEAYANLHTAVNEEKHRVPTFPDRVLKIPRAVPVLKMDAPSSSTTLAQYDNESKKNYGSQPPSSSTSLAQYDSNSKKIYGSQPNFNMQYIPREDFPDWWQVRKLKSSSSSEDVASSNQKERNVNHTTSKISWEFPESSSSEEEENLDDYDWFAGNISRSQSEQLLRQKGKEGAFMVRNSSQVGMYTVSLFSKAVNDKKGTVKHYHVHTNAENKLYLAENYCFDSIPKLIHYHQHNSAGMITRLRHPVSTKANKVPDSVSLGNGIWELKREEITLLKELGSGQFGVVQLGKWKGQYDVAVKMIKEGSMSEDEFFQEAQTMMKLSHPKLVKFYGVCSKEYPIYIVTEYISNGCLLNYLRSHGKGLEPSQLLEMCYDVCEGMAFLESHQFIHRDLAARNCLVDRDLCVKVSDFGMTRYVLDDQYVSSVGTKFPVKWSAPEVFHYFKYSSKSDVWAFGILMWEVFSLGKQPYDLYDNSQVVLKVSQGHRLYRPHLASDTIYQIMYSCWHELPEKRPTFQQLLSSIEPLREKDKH

[13] = molecular target: T6, Tyrosine-protein kinase TXK (Homo sapiens, UniProt P42681); test: Inhibition of TXK (unknown origin)
T6 sequence (P42681 whole entry): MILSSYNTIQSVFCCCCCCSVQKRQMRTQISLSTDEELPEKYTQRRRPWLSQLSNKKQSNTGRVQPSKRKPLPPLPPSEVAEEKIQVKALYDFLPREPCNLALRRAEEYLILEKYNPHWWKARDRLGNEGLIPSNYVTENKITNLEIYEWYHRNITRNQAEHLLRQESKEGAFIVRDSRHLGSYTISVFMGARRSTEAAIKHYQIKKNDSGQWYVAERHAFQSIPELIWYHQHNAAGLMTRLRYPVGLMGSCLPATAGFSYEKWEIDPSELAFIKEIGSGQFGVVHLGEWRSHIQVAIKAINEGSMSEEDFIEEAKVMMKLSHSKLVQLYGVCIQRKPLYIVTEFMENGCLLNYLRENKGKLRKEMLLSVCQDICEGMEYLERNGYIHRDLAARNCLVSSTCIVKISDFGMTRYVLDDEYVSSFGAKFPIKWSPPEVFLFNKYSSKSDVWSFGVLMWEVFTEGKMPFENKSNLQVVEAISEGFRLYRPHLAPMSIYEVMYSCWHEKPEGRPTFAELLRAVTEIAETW

[14] = molecular target: Proto-oncogene tyrosine-protein kinase Src (Homo sapiens, UniProt P12931); test: Inhibition of Src (unknown origin)
[15] = molecular target: T7, Interleukin-1 receptor-associated kinase 4 (Homo sapiens, UniProt Q9NWZ3); test: Inhibition of IRAK4 (unknown origin)
T7 sequence (Q9NWZ3 whole entry): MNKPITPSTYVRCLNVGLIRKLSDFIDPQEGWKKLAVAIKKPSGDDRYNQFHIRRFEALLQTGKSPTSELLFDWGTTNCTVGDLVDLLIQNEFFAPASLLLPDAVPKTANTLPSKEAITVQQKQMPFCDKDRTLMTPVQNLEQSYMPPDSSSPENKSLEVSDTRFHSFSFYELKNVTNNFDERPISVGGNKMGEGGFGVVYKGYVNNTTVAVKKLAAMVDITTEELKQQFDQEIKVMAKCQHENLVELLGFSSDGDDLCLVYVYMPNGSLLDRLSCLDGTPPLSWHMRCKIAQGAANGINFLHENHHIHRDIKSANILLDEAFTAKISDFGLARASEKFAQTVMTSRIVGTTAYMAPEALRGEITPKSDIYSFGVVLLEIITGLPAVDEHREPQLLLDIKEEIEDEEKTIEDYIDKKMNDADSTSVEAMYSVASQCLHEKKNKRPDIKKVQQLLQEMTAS

T1 sequence (Q96GD4 whole entry): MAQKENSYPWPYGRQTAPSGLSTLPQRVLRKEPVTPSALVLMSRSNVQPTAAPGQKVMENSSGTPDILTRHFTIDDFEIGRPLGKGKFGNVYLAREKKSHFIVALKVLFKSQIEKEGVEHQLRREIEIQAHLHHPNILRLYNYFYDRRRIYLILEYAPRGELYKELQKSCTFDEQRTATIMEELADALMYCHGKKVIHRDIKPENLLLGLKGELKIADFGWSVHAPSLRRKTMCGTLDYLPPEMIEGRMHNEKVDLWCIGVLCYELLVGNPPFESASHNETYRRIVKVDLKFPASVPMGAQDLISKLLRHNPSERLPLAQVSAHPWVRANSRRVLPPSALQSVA

Row | Ki (Aurora kinase B [1]) [nM] | Ki [2] [nM] | Ki [3] [nM] | Structure (SMILES) | other results
1 | 0.501 | 20 | 2 | Cc1cnc(Nc2cc(Cc3ccccc3)nc(N[C@H]3CC[C@H](O)CC3)n2)s1 | –
2 | 398 | 316 | 1 | O[C@H]1CC[C@H](Nc2nc(Cc3ccccc3)cc(Nc3nc4ccccc4s3)n2)CC1 | –
3 | 100 | 100 | 0.251 | O[C@H]1CC[C@H](Nc2nc(Cc3ccccc3)cc(Nc3nc4cccnc4s3)n2)CC1 | –
4 | 501 | 126 | 3.98 | COc1ccc2nc(Nc3cc(Cc4ccccc4)nc(N[C@H]4CC[C@H](O)CC4)n3)sc2c1 | IC50 (PBMC): 25.1 nM
5 | > 20000 | 3160 | 158 | Cc1csc(Nc2cc(Cc3ccccc3)nc(N[C@H]3CC[C@H](O)CC3)n2)n1 | –
6 | 20000 | > 25100 | > 10000 | Cc1cc2nc(Nc3cc(Cc4ccccc4)nc(N[C@H]4CC[C@H](O)CC4)n3)sc2cc1C | –
7 | 63.1 | 100 | 1.58 | CCc1ccc2nc(Nc3cc(Cc4ccccc4)nc(N[C@H]4CC[C@H](O)CC4)n3)sc2n1 | –
8 | 79.4 | 63.1 | 0.251 | N#Cc1ccc2nc(Nc3cc(Cc4ccccc4)nc(N[C@H]4CC[C@H](O)CC4)n3)sc2c1 | –
9 | 251 | 50.1 | 12.6 | O[C@H]1CC[C@H](Nc2nc(Cc3ccccc3)cc(Nc3nc4ccc(C(F)(F)F)cc4s3)n2)CC1 | –
10 | 316 | 79.4 | 0.2 | COc1ccc2nc(Nc3cc(Cc4ccccc4)nc(N[C@H]4CC[C@H](O)CC4)n3)sc2n1 | –
11 | 398 | 100 | 0.631 | CCc1ccc2nc(Nc3cc(Cc4ccccc4)nc(N[C@H]4CC[C@H](O)CC4)n3)sc2c1 | IC50 [7]: 398 nM; IC50 [8]: 631 nM; IC50 [9]: 316 nM; IC50 [10]: 251 nM; IC50 (Insulin receptor): 158 nM; IC50 [11]: 200 nM; IC50 [12]: 158 nM; IC50 [13]: 79.4 nM; IC50 [14]: 39.8 nM; IC50 [15]: 3.98 nM; IC50 (Aurora kinase B [4]): 398 nM; IC50 (PBMC): 50.1 nM; IC50 [5]: 126 nM
12 | 251 | 79.4 | 0.316 | O[C@H]1CC[C@H](Nc2nc(Cc3ccccc3)cc(Nc3nc4ccc(Cl)cc4s3)n2)CC1 | –
13 | 316 | 251 | 0.398 | Cc1ccc2nc(Nc3cc(Cc4ccccc4)nc(N[C@H]4CC[C@H](O)CC4)n3)sc2c1 | –

Continued, compound first:

Row | Structure (SMILES) | Ki (Aurora kinase B [1]) [nM] | Ki [2] [nM] | Ki [3] [nM] | other results
14 | COc1ccc2nc(Nc3cc(C(F)(F)c4ccc(F)cc4)nc(N[C@H]4CC[C@H](O)CC4)n3)sc2n1 | > 20000 | 200 | 15.8 | –
15 | CS(=O)(=O)N1CCOC(CNc2nc(Cc3ccccc3)cc(Nc3cc(-c4ccco4)n[nH]3)n2)C1 (stereo not drawn) | – | – | – | Ki (Aurora kinase B [4]): 316 nM; Ki [5]: 501 nM; Ki [6]: 6.31 nM
16 | O[C@H]1CC[C@H](Nc2nc(Nc3ccc(Oc4ccc(F)cc4)cn3)cc(C(F)(F)c3ccc(F)cc3)n2)CC1 | 5010 | 501 | 501 | –
17 | COc1ccc2nc(Nc3cc(C(F)(F)c4ccc(F)cc4)nc(N[C@H]4CC[C@H](O)CC4)n3)sc2c1 | 2510 | 251 | 20 | –
18 | O[C@H]1CC[C@H](Nc2nc(Nc3n[nH]c4ccccc34)cc(C(F)(F)c3ccc(F)cc3)n2)CC1 | 631 | 15800 | 794 | –
19 | COc1ccc2nc(Nc3cc(C(F)(F)c4ccc(F)cc4)nc(N4CCC[C@H]4C(N)=O)n3)sc2c1 | > 20000 | 2510 | 3980 | –
20 | NC(=O)C1CCN1c1nc(Cc2ccccc2)cc(Nc2cc(C3CCC3)n[nH]2)n1 (stereo not drawn) | – | – | – | Ki (Aurora kinase B [4]): 79.4 nM; Ki [5]: 501 nM; Ki [6]: 15.8 nM
21 | O[C@H]1CC[C@H](Nc2nc(Nc3ncc(Cc4ccccc4)s3)cc(C(F)(F)c3ccc(F)cc3)n2)CC1 | 5.01 | 100 | 63.1 | –
22 | NC(=O)[C@@H]1CCCN1c1nc(Nc2ncc(Cc3ccccc3)s2)cc(C(F)(F)c2ccc(F)cc2)n1 | 3160 | 316 | > 10000 | –
23 | O[C@H]1CC[C@H](Nc2nc(Nc3cc4ccccc4cn3)cc(C(F)(F)c3ccc(F)cc3)n2)CC1 | 79.4 | 100 | 6.31 | –
